{
  "source": "patent US20160312309A1",
  "about": "(Millennium Pharmaceuticals, Inc., priority 2008, published 2016)",
  "key": {"[1]": {"test_system": "relapsed multiple myeloma", "assay": "CREST phase 2 trial (024)", "format": "in vivo, human", "from_the_text": "(§1) Dexamethasone is a synthetic adrenocorticosteroid, CAS Registry No. 312-93-6, administered as tablets (DECADRON® Merck & Co., Inc.). 024: The CREST phase 2 trial (024) of either relapsed or refractory disease (subjects with first relapse, Jagannath et al. (2004) Br. J. Haematol. 127:165-172). […] 025: The SUMMIT phase 2 trial of patients with relapsed and refractory myeloma (subjects with second or greater relapse and refractory to their last prior therapy, Richardson P G, et al. (2003) N. Engl. J. Med. 348:2609-2617). […] Patients who received dexamethasone were treated for a maximum of 280 days by the following method: received up to four 5-week treatment cycles, followed by up to five 4-week treatment cycles. Within each 5-week treatment cycle, the patient received dexamethasone 40 mg/day PO, once daily on Days 1 to 4, 9 to 12, and 17 to 20 of a 35-day cycle. Within each 4-week treatment cycle, the patient received dexamethasone 40 mg/day PO once daily on Days 1 to 4 of a 28 day cycle. 040: Companion trial to 039 for patients who had more than 3 prior therapies. […] An additional 240 patients not from the −039 study, but who received at least 4 prior therapies also enrolled in this study."}, "[2]": {"test_system": "relapsed and refractory myeloma", "assay": "SUMMIT phase 2 trial (025)", "format": "in vivo, human", "conditions": "Study 025, bortezomib alone", "from_the_text": "as §1"}, "[3]": {"test_system": "relapsed or refractory multiple myeloma", "assay": "APEX phase 3 trial (039)", "format": "in vivo, human", "conditions": "for Median duration of response / Median time to response / One-year survival / complete response / complete response plus near-complete response / complete response, number of patients: 039; for response rate (complete plus partial response (CR+PR)): 039, EBMT criteria; for CR + PR + MR, (%) / Complete Response, (%) / Minor Response, (%) / Near CR: IF+, (%) / No Change, (%) / Not Evaluable, (%) / Overall Response Rate (CR + PR), (%) / Partial Response, (%) / Progressive Disease, (%) / SWOG Remission, (%): best confirmed response, N = 627", "from_the_text": "as §1\nThe following section presents more detailed information on the −039 trial. During the study, disease response was assessed according to the European Group for Blood and Marrow Transplant (EBMT) criteria as presented in Table 4.\nResponse and date of disease progression was determined by computer algorithm that integrated data from a central laboratory and case report forms from each clinical site, according to the Blade criteria (Table 4). […] See Richardson et al., supra.\nDisease progression was determined by Blade criteria as described in Table 4 and above. […] The date of progression was determined by computer algorithm. P-value from log-rank test adjusted by actual randomization factors. See Richardson et al., supra."}, "[4]": {"test_system": "relapsed multiple myeloma", "assay": "Response in pharmacogenomic portion of the studies", "format": "in vivo, human", "conditions": "for CR, number of patients / IE, number of patients / MR, number of patients / NC, number of patients / PD, number of patients / PR, number of patients: pharmacogenomic patients, study 039; for CR+PR rate / overall response rate: pharmacogenomic set of patients", "from_the_text": "Patient samples and response criteria from patients participating in these studies, as well as the following additional studies described below were sought for use in pharmacogenomic analyses to identify markers associated with patient survival. The samples were derived from the trials as described in Table 3 and in the following paragraphs.\nFor those patients who participated in the pharmacogenomic portion of the study, Table 6 summarizes the response rates and Table 7 summarizes the patients evaluated for survival. […]"}, "myeloma cells": {"test_system": "myeloma cells", "conditions": "independent of their p53 status; cited from earlier work"}, "xenograft tumor models": {"test_system": "xenograft tumor models", "conditions": "variety of xenograft tumor models; cited from earlier work"}, "[5]": {"test_system": "nuclear factor-κB (NF-κB) activation", "conditions": "cited from earlier work"}, "[6]": {"test_system": "cells that over express B-cell lymphoma 2 (Bcl-2)", "conditions": "cells that over express Bcl-2; cited from earlier work"}, "[7]": {"conditions": "difference in rates, bortezomib vs dexamethasone"}, "[8]": {"conditions": "difference in response rates, bortezomib vs dexamethasone"}},
  "data": [
    {"molecule": "CC(C)C[C@H](NC(=O)[C@H](Cc1ccccc1)NC(=O)c1cnccn1)B(O)O", "note": "[bortezomib, N (pyrazine)carbonyl-L-phenylalanine-L-leucine boronic acid]", "values": [
      {"measurement": "complete response (CR)+partial response (PR) rate", "setting": "[1]; Study 024, bortezomib 1.0 mg/m^2", "value": 30, "unit": "%"},
      {"measurement": "complete response (CR)+partial response (PR) rate", "setting": "[1]; Study 024, bortezomib 1.3 mg/m^2", "value": 38, "unit": "%"},
      {"measurement": "CR+PR rate", "setting": "[2]", "value": 27, "unit": "%"},
      {"measurement": "overall response rate (CR+PR+minimal response (MR))", "setting": "[2]", "value": 35, "unit": "%"},
      {"measurement": "CR+PR, number of patients", "setting": "[2]; of 193 patients", "value": 53, "unit": "patients"},
      {"measurement": "overall response (CR+PR+MR), number of patients", "setting": "[2]; of 193 patients", "value": 67, "unit": "patients"},
      {"measurement": "Median duration of response", "setting": "[3]", "value": 8, "unit": "months"},
      {"measurement": "Median time to response", "setting": "[3]", "value": 43, "unit": "days"},
      {"measurement": "One-year survival", "setting": "[3]", "value": 80, "unit": "%"},
      {"measurement": "complete response", "setting": "[3]", "value": 6, "unit": "%"},
      {"measurement": "complete response plus near-complete response", "setting": "[3]", "value": 13, "unit": "%"},
      {"measurement": "complete response, number of patients", "setting": "[3]", "value": 20, "unit": "patients"},
      {"measurement": "response rate (complete plus partial response (CR+PR))", "setting": "[3]", "value": 38, "unit": "%"},
      {"measurement": "CR + PR + MR, (%)", "setting": "[3]", "value": "(46) %"},
      {"measurement": "Complete Response, (%)", "setting": "[3]", "value": "(6) %"},
      {"measurement": "Minor Response, (%)", "setting": "[3]", "value": "(8) %"},
      {"measurement": "Near CR: IF+, (%)", "setting": "[3]", "value": "(7) %"},
      {"measurement": "No Change, (%)", "setting": "[3]", "value": "(43) %"},
      {"measurement": "Not Evaluable, (%)", "setting": "[3]", "value": "(3) %"},
      {"measurement": "Overall Response Rate (CR + PR), (%)", "setting": "[3]", "value": "(38) %"},
      {"measurement": "Partial Response, (%)", "setting": "[3]", "value": "(32) %"},
      {"measurement": "Progressive Disease, (%)", "setting": "[3]", "value": "(7) %"},
      {"measurement": "SWOG Remission, (%)", "setting": "[3]", "value": "(15) %"},
      {"measurement": "No Change, Difference", "setting": "[3]; [7]", "value": "−0.04"},
      {"measurement": "Not Evaluable, Difference", "setting": "[3]; [7]", "value": "−0.01"},
      {"measurement": "Progressive Disease, Difference", "setting": "[3]; [7]", "value": "−0.06"},
      {"measurement": "CR + PR + MR, Difference", "setting": "[3]; [8]", "value": 0.12},
      {"measurement": "Complete Response, Difference", "setting": "[3]; [8]", "value": 0.06},
      {"measurement": "Minor Response, Difference", "setting": "[3]; [8]", "value": "−0.09"},
      {"measurement": "Near CR: IF+, Difference", "setting": "[3]; [8]", "value": 0.06},
      {"measurement": "Overall Response Rate (CR + PR), Difference", "setting": "[3]; [8]", "value": 0.20},
      {"measurement": "Partial Response, Difference", "setting": "[3]; [8]", "value": 0.15},
      {"measurement": "SWOG Remission, Difference", "setting": "[3]; [8]", "value": 0.09},
      {"measurement": "decrease in risk of death", "setting": "[3]; first year after enrollment, bortezomib group vs dexamethasone", "value": 41, "unit": "%"},
      {"measurement": "CR, number of patients", "setting": "[4]", "value": 5},
      {"measurement": "IE, number of patients", "setting": "[4]", "value": 9},
      {"measurement": "MR, number of patients", "setting": "[4]", "value": 5},
      {"measurement": "NC, number of patients", "setting": "[4]", "value": 19},
      {"measurement": "PD, number of patients", "setting": "[4]", "value": 13},
      {"measurement": "PR, number of patients", "setting": "[4]", "value": 25},
      {"measurement": "CR+PR rate", "setting": "[4]", "value": 32, "unit": "%"},
      {"measurement": "overall response rate", "setting": "[4]", "value": 42.3, "unit": "%"},
      {"measurement": "cytotoxicity to myeloma cells in culture", "setting": "myeloma cells", "value": "directly cytotoxic"},
      {"measurement": "cytotoxic activity in xenograft tumor models", "setting": "xenograft tumor models", "value": "cytotoxic activity"},
      {"measurement": "NF-κB activation", "setting": "[5]", "value": "inhibits"},
      {"measurement": "apoptosis", "setting": "[6]", "value": "induces apoptosis"}
    ]},
    {"molecule": "C[C@@H]1C[C@H]2[C@@H]3CCC4=CC(=O)C=C[C@]4(C)[C@@]3(F)[C@@H](O)C[C@]2(C)[C@@]1(O)C(=O)CO", "note": "[dexamethasone, Dexamethasone]", "values": [
      {"measurement": "Median duration of response", "setting": "[3]", "value": 5.6, "unit": "months"},
      {"measurement": "Median time to response", "setting": "[3]", "value": 43, "unit": "days"},
      {"measurement": "One-year survival", "setting": "[3]", "value": 66, "unit": "%"},
      {"measurement": "complete response", "setting": "[3]", "value": "< 1", "unit": "%"},
      {"measurement": "complete response plus near-complete response", "setting": "[3]", "value": 2, "unit": "%"},
      {"measurement": "complete response, number of patients", "setting": "[3]", "value": 2, "unit": "patients"},
      {"measurement": "response rate (complete plus partial response (CR+PR))", "setting": "[3]", "value": 18, "unit": "%"},
      {"measurement": "CR + PR + MR, (%)", "setting": "[3]", "value": "(35) %"},
      {"measurement": "Complete Response, (%)", "setting": "[3]", "value": "(<1) %"},
      {"measurement": "Minor Response, (%)", "setting": "[3]", "value": "(17) %"},
      {"measurement": "Near CR: IF+, (%)", "setting": "[3]", "value": "(<1) %"},
      {"measurement": "No Change, (%)", "setting": "[3]", "value": "(48) %"},
      {"measurement": "Not Evaluable, (%)", "setting": "[3]", "value": "(4) %"},
      {"measurement": "Overall Response Rate (CR + PR), (%)", "setting": "[3]", "value": "(18) %"},
      {"measurement": "Partial Response, (%)", "setting": "[3]", "value": "(17) %"},
      {"measurement": "Progressive Disease, (%)", "setting": "[3]", "value": "(13) %"},
      {"measurement": "SWOG Remission, (%)", "setting": "[3]", "value": "(5) %"},
      {"measurement": "CR, number of patients", "setting": "[4]", "value": 1},
      {"measurement": "IE, number of patients", "setting": "[4]", "value": 6},
      {"measurement": "MR, number of patients", "setting": "[4]", "value": 11},
      {"measurement": "NC, number of patients", "setting": "[4]", "value": 16},
      {"measurement": "PD, number of patients", "setting": "[4]", "value": 22},
      {"measurement": "PR, number of patients", "setting": "[4]", "value": 13},
      {"measurement": "CR+PR rate", "setting": "[4]", "value": 22.2, "unit": "%"},
      {"measurement": "overall response rate", "setting": "[4]", "value": 39.7, "unit": "%"}
    ]}
  ]
}
